Test results from US7968605B2, “Methods for treating inflammatory disease by administering aldehydes and derivatives thereof” (ALFAMA—Investigação e Desenvolvimento de Produtos …, priority 2002, dated 2011).

Tests used:
[1] = CO release from aldehydes in different media (TBHP, H2O2, rpmi, pH 2), gas chromatograph; conditions: for CO release in rpmi: RPMI media with 10% fetal calf serum; for CO release in rpmi / CO release in TBHP solution / CO release in H2O2 solution / Media in which CO release was observed: 37° C.; for CO release in TBHP solution: TBHP solution in excess, aldehyde about 0.11-0.17 M; for Effect of radical trap 2,6-di-tert-butylphenol on CO release in acidic aqueous solution: acidic aqueous solution plus radical trap; for CO release in pH 2 (acidic aqueous) solution: aqueous solution pH 2-2.5, 37° C.; for CO release in H2O2 solution: hydrogen peroxide solution, 35% in water; for Media in which CO release was observed: tested in TBHP, H2O2, rpmi and pH 2 solutions
Description: In each experiment 2 ml of the appropriate solution, TBHP, H2O2, rpmi or pH 2 solution, was added and the vial placed at 37° C. with orbital stirring.
(§1) At the appropriate time, 250 μl of the gas mixture was removed from the vial, injected in the gas chromatograph (Trace GC with a TCD detector from Thermo Finnigan, connected to a Chrom-card 32 bit software), and the amount of CO was measured according to previously calibrated conditions.

[2] = CO release from aldehyde prodrug compounds in TBHP plus rpmi solution; conditions: for CO release / Rate of CO release: 1.5 ml rpmi + 0.5 ml TBHP, 37° C.
Description: as §1
1.5 ml of rpmi and 0.5 ml of TBHP were added, and the vial was placed at 37° C. with orbital stirring. At the appropriate time, 250 μl of the gas mixture was analysed as described for Example 1.

adjuvant arthritis [3] = assay: Anti-arthritic activity, adjuvant arthritis in Sprague-Dawley rats; format: in vivo; conditions: 100 mg/kg/day intraperitoneal for 20 days from day 10
Description: Adjuvant arthritis was induced in outbred Sprague-Dawley rats by intradermal injection into the subplantar area of the right hind paw of 0.1 ml of a 10 mg/ml suspension of Mycobacterium butyricum, killed and dried in Freund's incomplete adjuvant. Treatment was initiated 10 days after disease induction at the time of disease onset. Groups of 7 rats received intraperitoneal injections of compound 1 and compound 2 in 1 ml PBS, each at a dose of 100 mg/kg/day for 20 days. A control group of 7 rats received no treatment. Progression of arthritis was monitored by daily measurements of right and left paw volumes by a water displacement method using a plethysmometer, by daily measurements of the ankle circumference with a flexible strip, and by determination of the arthritic index based on levels of erythema and oedema of the entire paws and digits, number of joints involved, spondylosis, lesions on the tail, movement capacity and infections. The maximum possible score was 11.

adjuvant arthritis [4] = assay: Anti-arthritic activity, adjuvant arthritis in Lewis rats; format: in vivo; conditions: for Arthritic score / Increase in paw volume compared to vehicle or untreated rats: 100 and 25 mg/kg daily
[5] = listed as 4-ethyl-4-formyl-hexanenitrile
[6] = 25 mg/kg daily injections for 30 days from day 10
[7] = 100 mg/kg daily injections for 30 days from day 10

**Q.** For `CCC(C=O)(CC)CCC#N` [compound 3, 4-ethyl-4-formyl-hexanenitrile], which “CO release in rpmi” value [1] is on record?
**A.** decarbonylation in rpmi observed

**Q.** What about the “CO release in rpmi” value [1, 5] of the same compound?
**A.** even less

**Q.** What about the “CO release in TBHP solution” value [1] of the same compound?
**A.** released a very high amount of CO

**Q.** What about the “Effect of radical trap 2,6-di-tert-butylphenol on CO release in acidic aqueous solution” value (shortened to “Effect … in acidic aqueous solution”) [1] of the same compound?
**A.** inhibited the decarbonylation process

**Q.** What about the “CO release in pH 2 (acidic aqueous) solution” value [1] of the same compound?
**A.** decarbonylated significantly

**Q.** What about the “CO release in pH 2 (acidic aqueous) solution” value [1, 5] of the same compound?
**A.** less

**Q.** And the “CO release in H2O2 solution” value [1]?
**A.** No CO release was observed

**Q.** For `COC(=O)C1CSC(C(C)(C)C)N1` (racemic) [compound 10], which CO release [2] is on record?
**A.** released CO

**Q.** And the “Rate of CO release” value [2]?
**A.** very slow

**Q.** What about the “CO release after 6 hours” value ([2]; TBHP plus rpmi) of the same compound?
**A.** 0.3%

**Q.** And the “CO release after 25 hours” value ([2]; TBHP plus rpmi)?
**A.** 10.3%

**Q.** And the “CO release after one day” value ([2]; TBHP plus rpmi)?
**A.** about 10%

**Q.** For `CC(C)(C)/C=N/NC(=O)Nc1ccccc1`, which CO release [2] is on record?
**A.** No hydrolysis → No CO

**Q.** With `C=CCC(C)(C)C=O` [compound 2, 2,2-dimethyl-4-pentenal] as the compound, how does the “Body weight after disease onset” value (adjuvant arthritis [3]) read?
**A.** No loss of body weight was observed

**Q.** And the “Paw circumference (right and left)” value (adjuvant arthritis [3])?
**A.** prevented the increase

**Q.** And the “Paw volume (right and left)” value (adjuvant arthritis [3])?
**A.** prevented the increase

**Q.** And the “CO release in rpmi” value [1]?
**A.** decarbonylation in rpmi observed

**Q.** And the “CO release in rpmi” value ([1]; listed as 2,2-dimethyl-4-pentenal)?
**A.** even less

**Q.** What about the “CO release in TBHP solution” value [1] of the same compound?
**A.** released CO

**Q.** And the “CO release in pH 2 (acidic aqueous) solution” value [1]?
**A.** very little

**Q.** And the “CO release in H2O2 solution” value [1]?
**A.** No CO release was observed

**Q.** Which results are given for `CC(C)(C)C1NC(C(=O)O)CS1` (racemic) [compound 9, 2-tert-butylthiazolidine-4-carboxylic acid]?
**A.** CO release [2]: released CO; Rate of CO release [2]: fast within the first 6 hours; CO release after 5 hours ([2]; TBHP plus rpmi, 5 hours): 17%; CO release after 6 hours ([2]; TBHP plus rpmi): around 16%; CO release after 23 hours ([2]; TBHP plus rpmi, 23 hours): 21%; CO release after one day ([2]; TBHP plus rpmi): 20%

**Q.** Which results are given for `COC(=O)C1COC(C(C)(C)C)N1` (stereo not shown)?
**A.** CO release after 6 hours ([2]; TBHP plus rpmi): 0%; CO release after 24 hours ([2]; TBHP plus rpmi): 4.2%

**Q.** For `CC(C)(C)C1NC(C(=O)O)CCS1` (racemic) [compound 12, 2-tert-butyl-[1,3]thiazinane-4-carboxylic acid], which CO release [2] is on record?
**A.** lower than its 5-membered ring analogue

**Q.** What about the “CO release after 6 hours” value ([2]; TBHP plus rpmi) of the same compound?
**A.** 7.7%

**Q.** And the “CO release after 25 hours” value ([2]; TBHP plus rpmi)?
**A.** 15.8%

**Q.** And the “CO release after one day” value ([2]; TBHP plus rpmi)?
**A.** about 16%

**Q.** Which results are given for `CC(C)(C)C=O` [compound 1, trimethylacetaldehyde]?
**A.** Body weight after disease onset (adjuvant arthritis [3]): No loss of body weight was observed; Paw circumference (right and left) (adjuvant arthritis [3]): prevented the increase; Paw volume (right and left) (adjuvant arthritis [3]): prevented the increase; Increase in body weight by day 40 (adjuvant arthritis [4]; [6]): 38.7%; Increase in body weight by day 40 (adjuvant arthritis [4]; [7]): 40%; Arthritic score (adjuvant arthritis [4]): only slightly influenced; Increase in paw volume compared to vehicle or untreated rats (adjuvant arthritis [4]): reduced the increase in paw volume; Dependence of CO release on TBHP concentration ([1]; 0.23 M aldehyde, varying TBHP, up to 32 eq.): increased with the concentration of TBHP until approximately eight equivalents of TBHP was reached; CO release at higher and lower aldehyde concentrations relative to maximum ([1]; 0.25 M and 0.08 M aldehyde in TBHP): decreased approximately to half; Aldehyde concentration giving maximum CO release ([1]; 1.9 M TBHP): around 0.12 M; CO release in rpmi [1]: No CO was detected; CO release at TBHP concentration of inflamed tissues ([1]; TBHP 1 mM): CO release still was observed; CO release in TBHP solution [1]: released CO; Effect of radical trap 2,6-di-tert-butylphenol on CO release in TBHP solution ([1]; TBHP solution plus radical trap): inhibited; Effect of radical trap 2,6-di-tert-butylphenol on CO release in acidic aqueous solution [1]: inhibited; CO release in pH 2 (acidic aqueous) solution [1]: very little; CO release in H2O2 solution [1]: No CO was detected

**Q.** With `CC(C)(C=O)c1ccccc1` [compound 7, 2-methyl-2-phenylpropionaldehyde] as the compound, how does the “Increase in body weight by day 40” value (adjuvant arthritis [4]; [6]) read?
**A.** 28.6%

**Q.** What about the “Days with significant inhibition of arthritic score relative to vehicle treated rats” value (adjuvant arthritis [4]; 100 mg/kg) of the same compound?
**A.** 14 days

**Q.** And the “Reduction in paw volume compared with dexamethasone” value (adjuvant arthritis [4]; 100 mg/kg)?
**A.** comparable to that seen in rats treated with dexamethasone

**Q.** And the “Increase in body weight by day 40” value (adjuvant arthritis [4]; [7])?
**A.** 31.6%

**Q.** And the Arthritic score (adjuvant arthritis [4])?
**A.** only slightly influenced

**Q.** And the “Increase in paw volume compared to vehicle or untreated rats” value (adjuvant arthritis [4])?
**A.** reduced the increase in paw volume

**Q.** What about the “Effect … in acidic aqueous solution” value [1] of the same compound?
**A.** inhibited the decarbonylation process

**Q.** And the “CO release in pH 2 (acidic aqueous) solution” value [1]?
**A.** decarbonylated significantly

**Q.** What about the “CO release in H2O2 solution” value [1] of the same compound?
**A.** responded significantly to decarbonylation

**Q.** And the “Media in which CO release was observed” value [1]?
**A.** released CO in all media tested except rpmi solution

**Q.** With `C[C@@H]1C[C@H]2[C@@H]3CCC4=CC(=O)C=C[C@]4(C)[C@@]3(F)[C@@H](O)C[C@]2(C)[C@@]1(O)C(=O)CO` [dexamethasone, reference compound] as the compound, how does the “Increase in body weight by day 40” value (adjuvant arthritis [4]; dexamethasone 0.3 mg/kg daily for 30 days from day 10) read?
**A.** 25.7%

**Q.** With `Cc1ccc(CC(C)(C)C=O)cc1` [compound 6, 2,2-dimethyl-3-(p-methylphenyl)propanal] as the compound, how does the “CO release in rpmi” value [1] read?
**A.** decarbonylation in rpmi observed

**Q.** What about the “Effect … in acidic aqueous solution” value [1] of the same compound?
**A.** inhibited the decarbonylation process

**Q.** What about the “CO release in pH 2 (acidic aqueous) solution” value [1] of the same compound?
**A.** decarbonylated significantly

**Q.** What about the “Media in which CO release was observed” value [1] of the same compound?
**A.** released CO in all media tested except H2O2 solution

**Q.** Which CO release [2] does the source give for `CC(C)(C)C1Nc2ccccc2CO1` (stereo not shown) here?
**A.** No hydrolysis → No CO

**Q.** What does the source list for `CC(C)(C=O)CO` [compound 4, 3-hydroxy-2,2-dimethylpropanal]?
**A.** Time course of CO release in TBHP solution ([1]; TBHP solution, 0.12 M): initially the CO release was small, but within one day, it reached high levels; Media in which CO release was observed [1]: released CO only in TBHP solution

**Q.** With `CC(C)(C)C=Nc1ccc(C(=O)O)c(O)c1` as the compound, how does the CO release [2] read?
**A.** Stable, but instaneous hydro- lysis was observed when dissolved in water

**Q.** With `CC1C(c2ccccc2)OC(C(C)(C)C)N1C` (stereo not shown) as the compound, how does the CO release [2] read?
**A.** No hydrolysis → No CO

**Q.** For `CC(C)(C)C=NNC(=O)c1ccccc1`, which CO release [2] is on record?
**A.** No hydrolysis → No CO

**Q.** With `CC(C)(C)C1NCCS1` (racemic) [compound 11, 2-tert-butyl-thiazolidine] as the compound, how does the CO release [2] read?
**A.** released CO

**Q.** What about the “Rate of CO release” value [2] of the same compound?
**A.** initially very slowly

**Q.** What about the “CO release after 6 hours” value ([2]; TBHP plus rpmi) of the same compound?
**A.** 3%

**Q.** What about the “CO release after 24 hours” value ([2]; TBHP plus rpmi) of the same compound?
**A.** 25%

**Q.** What about the “CO release after one day” value ([2]; TBHP plus rpmi) of the same compound?
**A.** about 25%
